# Results reported in patent US11685713B2, “Small molecule SHC blockers used for treating liver disease and metabolic disease” (Buto Corporation, priority 2019, dated 2023).
# Tests used:
# [1] = tested on: Corticosterone model of Insulin resistance; test: Glucose Tolerance Test in the Corticosterone model of Insulin resistance; type: in vivo, mice; conditions: for glucose tolerizing effect in the Corticosteroid model: FIG. 3, summary in Example 1E; for GTT: glucose intolerance at time points after glucose administration / GTT Area Under the Curve (AUC): glucose intolerance relative to placebo: mice, corticosterone 21 days, 10 mg/kg i.p. for the final 5 days; for GTT: glucose intolerance at time points after glucose administration: FIG. 3 A/B; for GTT Area Under the Curve (AUC): glucose intolerance relative to placebo: FIG. 3 C
# Experimental: In a standard model of glucose intolerance and insulin insensitivity, corticosterone (CS) was dosed for 21 days, and in the drug treated group mice were administered Shc Blocker #3=RTX60933293 or #5=RTX73145433 at a dose of 10 mg/kg i.p. for the final 5 days of the 21-day CS treatment. […] By blocking the interaction of Shc protein with phosphotyrosines on the Insulin Receptor, a Shc blocker redirects more signaling to the insulin-sensitizing and glucose tolerizing phospho-Akt. Thus, peripheral cells become more sensitive per molecule insulin, and consequently more glucose tolerant. This prediction is borne out in the Corticosteroid model. Corticosterone is a known model of Type 2 Diabetes and Metabolic Syndrome, as Corticosterone induces peripheral insulin insensitivity.
# [2] = tested on: Methionine Choline-Deficient (MCD) Mouse model NASH; test: Liver fibrosis markers in the MCD model of Non-alcoholic Steatohepatitis (NASH); type: in vivo; conditions: mice, MCD 8 weeks, 20 mg/kg orally the last 4 weeks, vs placebo
# Experimental: Mice were fed the Liver fibrosis-inducing Methionine Choline-Deficient (MCD) Mouse model NASH for 8 weeks, and the last 4 weeks they were dosed orally with 20 mg/kg of compound number 3 (RTX60933293), compound number 5 (RTX73145433), or placebo. After 8 weeks of MCD dosing, mice were sacrificed, and livers were extracted for nucleic acids and classical markers of liver fibrosis were assayed by QRTPCR.
# Without wishing to be bound by theory, NASH could be considered the next-most common metabolic disturbance after Type 2 Diabetes in the USA, and currently has no approved treatment. There is a usual progression from NAFLD (fatty liver) to the more fibrotic/cirrhotic NASH. While the precise mechanism of the transition of NAFLD to NASH is not completely understood, hepatocyte death and resulting fibrosis has been proposed. Fibrosis and fibrotic scarring are thought to be the most important pathophysiological endpoints to end-stage NASH, which typically necessitates an expensive and difficult liver transplant. As shown in other examples, Shc blockers through their sensitization to insulin, IGF-1 and other growth factors, are cytoprotective. Thus, by inhibiting hepatocyte death which promotes fibrosis, they should also be anti-fibrotic.
# [3] = tested on: Methionine Choline-Deficient (MCD) Mouse model NASH; test: as above; type: in vivo; conditions: mice, MCD 8 weeks, 20 mg/kg orally the last 4 weeks, vs placebo; remark: listed apart in the source
SMILES,glucose tolerizing effect in the Corticosteroid model [1],GTT: glucose intolerance at time points after glucose administration [1],GTT Area Under the Curve (AUC): glucose intolerance relative to placebo [1],"Collagen 1a1 (Col1), liver, QRTPCR [2]","Matrix Metalloproteinase 2 (MMP2), liver, QRTPCR [2]","Tissue metallopeptidase inhibitor 1 (TIMP1), liver, QRTPCR [2]","Transforming Growth Factor beta (TGF-b), liver, QRTPCR [2]","alpha-smooth muscle actin (aSMA), liver, QRTPCR [2]",liver fibrosis bio marker hydroxyproline [3]
O=C(NCCS(=O)(=O)Cc1ccccc1)N1CC=C(c2cccc3ccccc23)C1 [Compound 3],significantly glucose tolerizing,reduced glucose intolerance significantly at 4 time points,significantly reduced glucose intolerance,significantly reduced,significantly reduced,significantly reduced,significantly reduced,significantly reduced,significantly reduced
O=C(c1cccc(-n2cccc2)c1)N1CCOC(c2cccc(OC(F)F)c2)C1 (stereo not drawn) [Compound 5],significantly glucose tolerizing,reduced glucose significantly at 2 time points,significantly reduced glucose intolerance,significantly reduced,significantly reduced,significantly reduced,significantly reduced,significantly reduced,significantly reduced
